In brackets after ≈: the same amount, converted by molar mass. Where two headings read alike, the source gives them in different places.
Columns and labels:
Format in all cases: cell-based
[1] = tested on: wild type strain of S. aureus; test: MIC from Rayleigh scattering growth in Cation Adjusted Mueller Hinton Broth, corrected for pathogen concentration; conditions: for MIC: Staphylococcus aureus
Description: FIG. 21A: Variation of Rayleigh scattering with time for 7 samples containing Cation Adjusted Mueller Hinton Broth (CAMHB), an unknown concentration of a test bacteria (which was identified as S. aureus due to pigment production), and loaded onto 96 well plates at 7 concentrations of the candidate antibiotic Vancomycin, with concentrations starting at 1.25 μg/mL (for Cell 7) and decreasing in steps of 2× for each well down to Cell 1. The data is collected for 8 hours. FIG. 21B: Variation of the fitting parameter a, in the fit equation y=a/[1+exp(−(t−b)/c)], with a non-linear best fit routine is applied to fit this equation to the data depicted on the left. The fitting parameter is plotted against cell#. From this variation, it is estimated that Rayleigh growth becomes negligible at an extrapolated cell # of 4.8, which corresponds to a Vancomycin concentration of 0.19 μg/mL.
As we observe experimentally, the antimicrobial susceptibility metric MIC is a function of pathogen concentration, as depicted in FIG. 19. Thus, estimates for MIC obtained from a test sample that is at a pathogen concentration lower than the concentration of 2×10^8 CFU/mL (or 0.5 McFarland) specified in the CLSI M100 standard will need to be corrected for this variation to maximize concordance between a rapid test MIC and the CLSI standard. Empirically, we find that the slope of the traces depicted in FIG. 19 scales with the absolute magnitude of the estimated MIC, as depicted in FIG. 20. Thus, an algorithm to correct the MIC for pathogen concentration is to use the empirical observed scaling relationship depicted in FIG. 20, along with the pathogen concentration estimated from the methods described in FIG. 18. […] Separately, the time to detection is measured as 161 minutes, and this returns an S. aureus concentration of 7.5×10^6 CFU/mL.
We illustrate this process with one example of a wild type strain of S. aureus tested against Vancomycin in Cation Adjusted Mueller Hinton Broth (CAMHB Himedia labs M1657). With CAMHB, the viability of the bacteria is estimated by plotting the Rayleigh scattering factor versus time, and fitting this to an exponential growth function a/[1+exp(−(t−b)/c)], as illustrated in FIG. 21. The growth factor a is then plotted against antibiotic concentration, and from this profile, the concentration at which a approaches zero is estimated as the nominal MIC at the pathogen concentration. Separately, the pathogen concentration is estimated and the MIC is corrected for the pathogen concentration. […] The CLSI M100 breakpoints for Staphylococcus against Vancomycin are >16 μg/mL for resistant and <2 μg/mL for susceptible. Accordingly, this strain of S. aureus is reported as being susceptible to vancomycin, […]

[2] = tested on: S. aureus (clinical sample); test: MIC from time required for S. aureus pigment detection versus antibiotic concentration
Description: FIG. 15: Variation of the time required for pigment detection versus antibiotic concentration for tetracycline plotted against antibiotic concentration. The pathogen concentration is estimated at 8.8×10^6 CFU/mL. For antibiotic concentrations of 2 μg/mL, the time to detection is increased by a factor of >2 compared to the baseline value of about 150 minutes for this pathogen concentration. We set this 2× increase as the criterion for MIC˜other criterion can also be used, but will require a different set of corrections for pathogen concentration. With the MIC at the test pathogen concentration, we apply the correction described above, and find that the rapid test MIC correlates with the CLSI M100 MIC, as depicted in FIG. 23.
The second factor that complicates a rapid test for MIC is the presence of multiple pathogens in a polymicrobial sample. For example, a polymicrobial sample that is dominated by Enterococcus but in which the S. aureus is the pathogen of concern, the MIC estimated by examining the growth of Rayleigh scattering can be erroneous because of an incorrect correction for pathogen concentration, and because the Rayleigh scattering is dominated by Enterococcus growth. This issue can be mitigated by one of two ways: (a) by flagging all polymicrobial samples & (b) by focusing the response on a signal associated with the pathogen of interest. For example, using the methods described in Example 5, we detect the S. aureus specific pigments, and characterize the time required for the detection of these pigments as a function of antibiotic concentration. This is illustrated in FIG. 15 for a clinical sample containing […], and the antibiotic tetracycline. From this variation, the MIC is estimated as the minimum antibiotic concentration required to increase the time to detection metric by 2× compared to the time to detection metric observed for the media without any antibiotic (which was 150 minutes in this example). And so, the MIC in this example is log (concentration)=0.3, or a concentration of 2 μg/mL. The concentration of S. aureus estimated from the detection time of 150 minutes (and the methods described in Example 8) is 8.8×10^6 CFU/mL. […] This clinical sample also contained Enterococcus (which was evident after isolating individual colonies on a blood Agar plate), but the method described here focuses the MIC metric on the response of S. aureus.

[3] = tested on: E. coli 25922; test: Minimum inhibitory concentration from phenol red 560 nm absorbance peak height; conditions: 1000 CFU/mL E. coli; extrapolated from a linear fit to phenol red peak height
Text: This example characterizes the response of E. coli 25922 to Gentamicin. Top: The curves illustrate the response of a test solution that includes 1000 CFU/mL E. coli, the Phenol-Red based reagent described in herein, and Gentamicin GM present at concentrations that are depicted in the legend. The Y axis depicts the height of the phenol red peak at 560 nm, normalized to the starting value.
This example characterizes the response of E. coli 25922 to Gentamicin. Top: The curves illustrate the response of a test solution that includes 1000 CFU/mL E. coli, the Phenol-Red based reagent described herein, and Gentamicin GM present at concentrations that are depicted in the legend. The Y axis depicts the height of the phenol red peak at 560 nm, normalized to the starting value. Bottom: The normalized peak height at 300 minutes, plotted as a function of GM concentration.
Antimicrobial susceptibility response was characterized. The metabolic activity of the causative pathogen can be suppressed by an effective antimicrobial. Thus, when a candidate antibiotic, present at a test concentration, is combined with the teachings described herein, then we can deduce the effect of that antibiotic on the microorganism. If we combine a series of antibiotic concentrations, then we can deduce the minimum inhibitory concentration. […]

`CN[C@H](CC(C)C)C(=O)N[C@H]1C(=O)N[C@@H](CC(N)=O)C(=O)N[C@H]2C(=O)N[C@H]3C(=O)N[C@H](C(=O)N[C@H](C(=O)O)c4cc(O)cc(O)c4-c4cc3ccc4O)[C@H](O)c3ccc(c(Cl)c3)Oc3cc2cc(c3O[C@@H]2O[C@H](CO)[C@@H](O)[C@H](O)[C@H]2O[C@H]2C[C@](C)(N)[C@H](O)[C@H](C)O2)Oc2ccc(cc2Cl)[C@H]1O` [Vancomycin] was tested, and the “MIC estimated at the test pathogen concentration (concentration at which Rayleigh growth becomes negligible)” value ([1]; CAMHB, 8 hours, extrapolated cell # 4.8, S. aureus 7.5×10^6 CFU/mL) was 0.19 µg/mL (≈ 0.131 µM), the MIC ([1]; 8 h, read-out: MIC estimated at the test pathogen concentration (concentration at which Rayleigh growth becomes negligible), CAMHB, 8 hours, extrapolated cell # 4.8, S. aureus 7.5×10^6 CFU/mL) was 0.192 µg/mL (≈ 0.132 µM) and the MIC ([1]; read-out: CLSI M100 MIC at 0.5 McFarland, estimated by correction for pathogen concentration, corrected from 7.5×10^6 CFU/mL to 0.5 McFarland) was 0.867 µg/mL (≈ 0.598 µM). For the same compound, the “resistant or susceptible status by comparison with CLSI M100 breakpoints” value ([1]; breakpoints >16 μg/mL resistant, <2 μg/mL susceptible) was “susceptible”.
For `CN(C)[C@@H]1C(O)=C(C(N)=O)C(=O)[C@@]2(O)C(O)=C3C(=O)c4c(O)cccc4[C@@](C)(O)[C@H]3C[C@@H]12` [tetracycline], the “MIC (minimum concentration that increases time to detection by 2×) at the test pathogen concentration” value ([2]; S. aureus 8.8×10^6 CFU/mL) was 2 µg/mL (≈ 4.5 µM), the “MIC as log (concentration)” value ([2]; S. aureus 8.8×10^6 CFU/mL) was 0.3 and the MIC ([2]; Staphylococcus aureus, corrected from 8.8×10^6 CFU/mL, read-out: MIC at 0.5 McFarland, estimated by correction for pathogen concentration) was 2.51 µg/mL (≈ 5.65 µM). For the same compound, the “increase of time to pigment detection compared to baseline (factor)” value ([2]; antibiotic 2 μg/mL, baseline about 150 minutes, pathogen 8.8×10^6 CFU/mL) was over 2.
Gentamicin was tested, and the “GM concentration at which the 560 nm peak height does not decrease from the starting value (minimum inhibitory concentration)” value [3] was 2.03 µg/mL.
